Bridge positions count the residues as written; N and C are the ends. Ends that are not written are not given here.
Tested on: plasma calcium concentration
Experiment: Evaluation of physiological activity of PEGylated salmon calcitonin (blood calcium concentration)
Assay type: in vivo, mouse
Set-up: dose or concentration left out as unconfirmed
Conditions: Balb/c mice, sCT dose, plasma at 1, 6, 24 hr, compared to PBS group, FIG. 16
Experimental: The method for evaluating the physiological activity of a degradable polyethylene glycol derivative-bonded bio-related substance is not particular limited. For example, when the bio-related substance is insulin, blood sugar concentration is measured, and when it is calcitonin, blood calcium concentration is measured, by periodically collecting blood from the animal that received administration and measuring the substance in the blood by using an appropriate analytical instrument, and the like, based on which the evaluation can be performed. Specifically, in the case of insulin, a glucose measurement kit is used to monitor a decrease in glucose concentration after administration and, in the case of calcitonin, a decrease in calcium concentration after administration is monitored using a calcium measurement kit, based on which the evaluation can be performed.
The physiological activities of 4 groups of sCT-E(FG-200ME)2 which is SCT to which degradable polyethylene glycol derivative with a molecular weight of 40,000 is bonded and methoxy PEG 40 kDa-sCT, in which non-degradable methoxy PEG 40 kDa is bonded, each of which is obtained in Example 9, unmodified sCT, and PBS were comparatively evaluated in animal experiments. […]

With “Unmodified sCT: salmon calcitonin (sCT) with the amino acid sequence CSNLSTCVLGKLSQELHKLQTYPRTNTGSGTP (SEQ ID NO: 1) (CSNLSTCVLGKLSQELHKLQTYPRTNTGSGTP-NH2; disulfide 1-7; ends not checked; listed as Oncorhynchus keta)” the “plasma calcium concentration after administration (in words)” value was “showed an increase in calcium concentration from 6 hr after administration”.

From patent US12390534B2, “Branched degradable polyethylene glycol binder” (NOF CORPORATION, priority 2019, dated 2025)
